Laboratory results: US8710003B2, “Treatment of diabetes with milk protein hydrolysate” (Nestec S.A., priority 1999, dated 2014)

System: NCI-H716 cells
Assay: Release of active GLP-1 by NCI-H716 cells
Format: cell-based, human
Settings: alpha-lactose dose equivalent to that contained in the wheys, 2 h incubation, active GLP-1 only
Protocol: Cells were grown in suspension at 37° C., 5% CO2. The culture medium consisted of RPMI 1640 supplemented with 10% FBS, 2 mM L-glutamine, 100 IU/ml penicillin and 100 μg/ml streptomycin. […] Cells were, therefore, seeded in dishes coated with […] ® (Becton Dickinson, Bedford, Mass., USA) two days before experiments.
Two days before experiments, 1×10^6 cells were seeded in 12 well culture plates coated with […] ®. On the day of the experiment, the supernatant was replaced by Krebs-Ringer Bicarbonate Buffer (KRB) containing 0.2% wt/vol BSA with or without CGMP. Cells were incubated for 2 h at 37° C. Supernatants were collected with the addition of 50 μg/ml PMSF and frozen at −80° C. for subsequent analysis by radioimmunoassay (RIA) of GLP-1. Cells were scraped with a rubber policeman and homogenization buffer [1 N HCl containing 5% (v/v) HCOOH, 1% (v/v) trifluoroacetic acid (TFA), and 1% (v/v) NaCl] and sonicated for 15 s. […] The intraassay coefficient of variance was 2.28%.
Here, a kit was used that only measures the active form of GLP-1, i.e., GLP-1 (7-37) or GLP-1 (7-36 amide), but not the degraded form, GLP-1 (9-36 amide), as was included in the data for FIGS. 1-3.

OC[C@H]1O[C@@H](O[C@H]2[C@H](O)[C@@H](O)[C@@H](O)O[C@@H]2CO)[C@H](O)[C@@H](O)[C@H]1O [alpha-lactose]
GLP-1 secretion compared to the control: 144±32%
